These results are taken from patent publication US5166201A, “2β,19-ethylene bridged steroids as aromatase inhibitors” (Merrell Dow Pharmaceuticals Inc., priority 1990, dated 1992).

This assay addresses T1, aromatase (Homo sapiens, UniProt P11511).
T1 construct: microsomal protein per ml of assay buffer; from tissue; host or cells: microsomes
T1 sequence (P11511 1-503): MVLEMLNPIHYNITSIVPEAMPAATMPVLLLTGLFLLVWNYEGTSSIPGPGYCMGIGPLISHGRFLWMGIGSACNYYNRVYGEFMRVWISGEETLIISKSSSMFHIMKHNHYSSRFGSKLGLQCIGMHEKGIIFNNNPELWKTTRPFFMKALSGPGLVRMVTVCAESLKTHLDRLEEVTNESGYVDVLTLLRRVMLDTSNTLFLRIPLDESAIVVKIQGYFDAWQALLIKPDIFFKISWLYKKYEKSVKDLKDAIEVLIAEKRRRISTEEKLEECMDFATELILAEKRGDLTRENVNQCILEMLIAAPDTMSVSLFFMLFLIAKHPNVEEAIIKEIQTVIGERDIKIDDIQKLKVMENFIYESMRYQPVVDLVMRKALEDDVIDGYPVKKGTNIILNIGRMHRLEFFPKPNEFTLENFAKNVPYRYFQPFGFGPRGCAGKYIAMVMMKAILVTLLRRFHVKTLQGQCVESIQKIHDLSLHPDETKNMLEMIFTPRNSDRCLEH
Put plainly: time-dependent aromatase inhibition assay (preincubation, Kitz-Wilson analysis). The class given is biochemical. The procedure: In this assay, the inhibitor is preincubated with enzyme prior to assaying for activity in the presence of high substrate levels. A time-related decrease in enzyme activity can be indicative of irreversible binding […] a preferred method of inhibition.
In the time-dependent assay, an amount of the enzyme inhibitor in 100 μl of the assay buffer described above which will provide assay concentrations which are usually between 1 nM and 10 μm are added to 35-ml centrifuge tubes containing 600 μl of the NADPH generating system. The preincubation is started by the addition of 700 μl of aromatase preparation, usually 300-800 μg of microsomal protein per ml of assay buffer. These preparations are mixed using a vortex mixer and incubated for 0, 5, 10 or 20 minutes at 25° C. Then 100 μl of androstenedione (-6.8 μM) containing 1β-^3 H androstenedione is added in assay buffer to provide an assay concentration of substrate (0.55 μM) which is at least ten times the Km of androstenedione (0.04 μM). Following vortexing, the enzyme incubation is continued for 10 minutes before being terminated by the addition of chloroform. The amount of radioactivity in the aqueous fraction is determined by scintillation procedures. The enzymatic activity for each concentration of inhibitor at each time period of preincubation is calculated as a percent of the "0" minute vehicle control arbitrarily set at 100%. Therefore, the present enzyme inhibition is expressed as a percentage: (100 percent minus percent enzyme activity with inhibitor present).
Enzyme kinetic analysis utilized Kitz-Wilson plots for time-dependent assays. These analyses provide estimates of apparent Ki of inactivation which represents the inhibitor concentration required to produce half-maximal rate of enzyme inactivation. The pseudo first-order rate constant for enzyme inactivation (kcat) and the half-time of inactivation (.tau.50) of infinite inhibitor concentrations were determined. […]

The structures appear in SMILES notation.

Regarding `C[C@]12CC[C@H]3[C@@H](CCC4=CC(=O)[C@H]5CCC[C@]43C5)[C@@H]1CCC2=O` [2β,19-(ethylene)androst-4-ene-3,17-dione], the kinact/KI (Kitz-Wilson analysis, read-out: kcat /Ki (inactivation) ratio, index of efficiency of enzyme inactivation) turned out to be 558000 M⁻¹ s⁻¹. The “half-time of inactivation (.tau.50) at infinite inhibitor concentration” value (Kitz-Wilson plot, microsomal aromatase preparation, 25° C.) was 0.87 min. Moreover, the KI (inactivation) (Kitz-Wilson plot, microsomal aromatase preparation, preincubation 0-20 min at 25° C., androstenedione 0.55 μM, read-out: apparent Ki of inactivation) was determined as 23.9 nM.
